Data set [1] can be described thus: Total drug level in cell pellets of human limbal stem cells by LC-MS analysis. Type of data set: ADME.
Data set [2] can be described thus: Drug level in post wash cell pellets of human limbal stem cells by LC-MS analysis. Type of data set: ADME.
Data set [3] has as its target T1, Serine/threonine-protein kinase LATS (Homo sapiens) (UniProt Q9NRM7+O95835). Kind of data set: Inhibition of LATS in human limbal epithelial cells assessed as induction of cell differentiation into corneal epithelial cells by measuring keratin-12 expression at 10 uM incubated for 8 to 10 days followed by medium change to DMEM medium without serum and compound for further incubation for 4 to 8 days by confocal microscopy. The class given is cell-based.

The target of data set [4] is T1, Serine/threonine-protein kinase LATS (Homo sapiens). Nature of the data set: Inhibition of LATS in human corneal endothelium cells assessed as induction of cell expansion by measuring cell density at 10 uM by Sytox orange dye based epifluorescence microscopy.
Data set [5] concerns Mus musculus. Kind of data set: Inhibition of LATS in C57BL/6J mouse assessed as change in CTGF mRNA expression level at 10 mg/kg, po administered as single dose measured after 2 hrs by qRT-PCR analysis relative to control. The class given is functional. Background: Real-time PCR tracks product formation cycle by cycle.
For data set [6], the system named is Mus musculus. Kind of data set: Inhibition of LATS in C57BL/6J mouse assessed as change in Ki67 protein expression level at 10 mg/kg, po administered as single dose measured after 24 hrs by immunohistochemistry analysis relative to control. Type of data set: functional.
Data set [7] deals with Mus musculus. Kind of data set: Inhibition of LATS in C57BL/6J mouse assessed as change in Cyr61 mRNA expression level at 10 mg/kg, po administered as single dose measured after 2 hrs by qRT-PCR analysis relative to control. The class given is functional.
The target of data set [8] is T1, Serine/threonine-protein kinase LATS (Homo sapiens). Kind of data set: Inhibition of LATS in human limbal epithelial cells assessed as induction of limbal stem cell expansion by measuring expansion factor ratio at 10 uM measured after 2 weeks by p63alpha expression detection based immunohistochemistry relative to control. Also on record: scale not given: the % may be the effect or the level left.

Data set [9] in a line: Total drug level in cell pellets of human corneal endothelium cells by LC-MS analysis. The class given is ADME.
A short description of data set [10]: Drug level in cell pellets of human corneal endothelium cells by LC-MS analysis. The class given is ADME.

Consider two compounds from ChEMBL document CHEMBL4420070, “6-6 Fused Bicyclic Heteroaryl Compounds and their Use as LATS Inhibitors” (2018).

Active and inactive are the calls of the source. The calls are words filed in the database; no cut-off is given here.

T1 sequence (O95835 whole entry, looked up): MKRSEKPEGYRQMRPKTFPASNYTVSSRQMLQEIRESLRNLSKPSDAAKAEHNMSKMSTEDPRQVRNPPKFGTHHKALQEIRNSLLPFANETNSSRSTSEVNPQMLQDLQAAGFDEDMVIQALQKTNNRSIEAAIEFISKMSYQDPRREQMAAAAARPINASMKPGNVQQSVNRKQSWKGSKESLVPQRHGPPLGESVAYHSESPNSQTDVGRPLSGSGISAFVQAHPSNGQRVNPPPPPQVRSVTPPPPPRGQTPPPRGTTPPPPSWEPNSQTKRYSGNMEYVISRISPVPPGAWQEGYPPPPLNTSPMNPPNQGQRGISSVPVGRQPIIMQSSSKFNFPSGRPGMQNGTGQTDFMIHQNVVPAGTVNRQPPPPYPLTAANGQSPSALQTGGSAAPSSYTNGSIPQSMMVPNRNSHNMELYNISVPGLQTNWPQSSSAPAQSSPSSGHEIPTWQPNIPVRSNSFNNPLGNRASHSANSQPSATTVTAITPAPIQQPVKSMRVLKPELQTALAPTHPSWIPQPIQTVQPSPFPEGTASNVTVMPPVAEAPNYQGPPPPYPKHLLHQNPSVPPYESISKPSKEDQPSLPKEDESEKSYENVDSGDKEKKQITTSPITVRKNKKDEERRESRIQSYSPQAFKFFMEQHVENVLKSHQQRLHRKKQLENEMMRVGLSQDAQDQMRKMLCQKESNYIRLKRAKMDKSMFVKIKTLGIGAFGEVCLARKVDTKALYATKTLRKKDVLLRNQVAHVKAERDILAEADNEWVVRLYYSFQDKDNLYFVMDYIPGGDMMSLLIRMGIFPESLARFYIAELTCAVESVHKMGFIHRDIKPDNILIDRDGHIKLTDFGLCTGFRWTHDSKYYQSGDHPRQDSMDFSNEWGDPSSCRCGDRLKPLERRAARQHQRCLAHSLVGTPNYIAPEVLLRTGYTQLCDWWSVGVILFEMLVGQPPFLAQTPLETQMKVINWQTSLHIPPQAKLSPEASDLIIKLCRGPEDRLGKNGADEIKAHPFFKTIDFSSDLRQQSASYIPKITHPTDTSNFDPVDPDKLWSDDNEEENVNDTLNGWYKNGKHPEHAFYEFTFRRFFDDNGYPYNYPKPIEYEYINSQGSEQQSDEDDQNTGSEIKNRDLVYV
T1 sequence (Q9NRM7 whole entry, looked up): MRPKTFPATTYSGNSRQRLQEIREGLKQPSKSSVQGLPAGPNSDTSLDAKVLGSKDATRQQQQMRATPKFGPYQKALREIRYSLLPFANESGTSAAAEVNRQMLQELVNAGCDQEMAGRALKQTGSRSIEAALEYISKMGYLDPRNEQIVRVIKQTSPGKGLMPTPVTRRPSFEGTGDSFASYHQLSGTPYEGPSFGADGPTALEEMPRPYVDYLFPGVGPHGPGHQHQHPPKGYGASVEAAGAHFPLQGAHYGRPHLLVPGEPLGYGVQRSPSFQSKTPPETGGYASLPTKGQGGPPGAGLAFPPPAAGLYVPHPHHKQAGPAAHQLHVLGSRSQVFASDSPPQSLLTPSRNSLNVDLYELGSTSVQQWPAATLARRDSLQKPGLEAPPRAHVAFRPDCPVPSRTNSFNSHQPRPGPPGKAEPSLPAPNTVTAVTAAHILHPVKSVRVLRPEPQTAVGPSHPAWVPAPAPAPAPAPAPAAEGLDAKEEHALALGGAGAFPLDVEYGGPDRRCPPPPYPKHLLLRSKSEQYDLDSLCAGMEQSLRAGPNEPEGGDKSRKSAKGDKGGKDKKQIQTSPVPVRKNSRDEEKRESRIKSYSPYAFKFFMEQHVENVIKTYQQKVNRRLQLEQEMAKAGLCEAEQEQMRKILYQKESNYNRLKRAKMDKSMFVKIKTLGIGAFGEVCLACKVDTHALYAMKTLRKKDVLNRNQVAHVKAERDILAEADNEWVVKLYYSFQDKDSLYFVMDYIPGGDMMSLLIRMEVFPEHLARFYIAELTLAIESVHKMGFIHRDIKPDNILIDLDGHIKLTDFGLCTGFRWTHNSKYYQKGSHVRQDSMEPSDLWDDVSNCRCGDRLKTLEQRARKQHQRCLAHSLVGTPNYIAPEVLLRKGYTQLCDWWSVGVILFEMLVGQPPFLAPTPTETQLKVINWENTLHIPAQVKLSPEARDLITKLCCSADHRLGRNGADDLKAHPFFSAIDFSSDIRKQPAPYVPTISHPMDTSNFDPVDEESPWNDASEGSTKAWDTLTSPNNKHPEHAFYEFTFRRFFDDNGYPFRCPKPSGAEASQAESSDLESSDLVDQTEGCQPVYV

Regarding `CC(C)(C)Nc1cc(-c2ccncc2)nc2cnccc12`, the figures for the Drug uptake in data set [1] and in data set [2] were 83 pg and 0.315 to 11 nM, respectively. Further, the inhibition entry in data set [3] was “Active”. The Activity is 4310 /mm2 in data set [4] and 57 to 97% in data set [8]. For the same compound, the “fold change (FC)” value with Mus musculus [5] was found to be 2.5; in the data set with Mus musculus [6] it was 3.1; in the data set on Mus musculus [7], 3.9.

`C[C@H](N(C)c1nc(-c2ccncc2)nc2cnccc12)C(F)(F)F`: the figures for the Drug uptake in [1], in data set [9] and in [10] were 340 pg, 0.75 pg and 0.004 to 0.071 nM, respectively.
